Laboratory results reported in patent publication US11911382B2, “Method for treating pulmonary arterial hypertension and associated pulmonary arterial hypertension” (Altavant Sciences GmbH, priority 2018, dated 2024).

What was measured:
TPH1 = target: T1, TPH1 (Mus musculus, UniProt P17532); conditions: amorphous form; cited from earlier work
T1 construct: from tissue; host or cells: live mice (in vivo)
T1 sequence (P17532 1-447): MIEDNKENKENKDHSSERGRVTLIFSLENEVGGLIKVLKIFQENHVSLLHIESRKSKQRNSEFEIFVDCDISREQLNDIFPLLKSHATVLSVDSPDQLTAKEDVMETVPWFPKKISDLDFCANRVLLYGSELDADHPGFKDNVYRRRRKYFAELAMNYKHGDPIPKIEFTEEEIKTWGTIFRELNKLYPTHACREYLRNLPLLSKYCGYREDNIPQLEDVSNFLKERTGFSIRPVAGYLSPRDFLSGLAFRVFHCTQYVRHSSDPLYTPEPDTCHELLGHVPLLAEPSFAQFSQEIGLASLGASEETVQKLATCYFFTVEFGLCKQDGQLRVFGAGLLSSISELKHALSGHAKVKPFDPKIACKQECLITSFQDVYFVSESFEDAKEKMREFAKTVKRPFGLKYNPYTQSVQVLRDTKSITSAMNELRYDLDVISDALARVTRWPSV

5-HIAA = test: plasma 5-HIAA in healthy human subjects; assay type: in vivo; conditions: 400 mg BID, Day 1 to Day 14
Procedure: (§1) Mean change in plasma 5-HIAA may be about −53% from Day 1 to Day 14, whereas placebo may be about +26%. Interpolation of KAR5417 AUC between 400 mg and 800 mg BID regimens may show 500-600 mg BID in humans will achieve the target exposure associated with efficacy in rat models.

[1] = safety and tolerability in healthy human subjects; assay type: in vivo; conditions: doses required to achieve clinically-relevant AUC
Procedure: (§2) Healthy human subjects (n=˜120) may receive RVT-1201.
as §1

serotonin biosynthesis = test: serotonin biomarkers in rat (serum serotonin, urinary 5-HIAA); assay type: in vivo; conditions: 30 to 300 mg/kg/day, dose-dependent
Procedure: RVT-1201 (30 to 300 mg/kg/day) may yield a dose-dependent reduction in rat serum serotonin (−27% to −96%) and 24 h urinary output of 5-HIAA (−45% to −56%). HIAA is a metabolite that reflects total serotonin biosynthesis.

[2] = pharmacokinetics in healthy human subjects; assay type: in vivo; conditions: humans, interpolation of KAR5417 AUC between 400 mg and 800 mg BID regimens
Procedure: as §2, §1

serotonin biomarkers = test: divided dose studies in rats; assay type: in vivo, rat
[3] = system: established PAH, SUGEN-hypoxia treatment model; test: SUGEN-hypoxia treatment model for established PAH; assay type: in vivo; conditions: rat, oral RVT-1201 100 mg/kg/day
[4] = system: PAH, monocrotaline prevention model; test: monocrotaline prevention model of PAH; assay type: in vivo; conditions: rat, oral RVT-1201 100 mg/kg/day
[5] = stability of crystalline polymorphs; assay type: physicochemical; conditions: particularly at temperatures of less than 95° C.
Excerpt: The above-referenced compound can be used to prevent or treat PAH/APAH in either an amorphous or crystalline form. Two different polymorph crystalline forms are identified by x-ray powder diffraction patterns set forth in FIG. 1 (Form 3) and FIG. 2 (Form 1) as well as Tables 1 and 2 (Form 3) and Tables 3 and 4 (Form 1).

Row | Structure (SMILES) | efficacy in inhibiting TPH1 in mice (TPH1) | mean change in plasma 5-HIAA (5-HIAA) | tolerability [1] | reduction in 24 h urinary output of 5-HIAA (serotonin biosynthesis) | reduction in rat serum serotonin (serotonin biosynthesis) | BID dose achieving target exposure associated with efficacy in rat models [2] [mg] | once daily administration versus BID or TID regimens (serotonin biomarkers) | serotonin reduction (serotonin biomarkers; 75 mg/kg/day, divided dose studies) [%] | effect on PAH [3] | effect on PAH [4] | stability and shelf life compared to crystalline Form 1 polymorph [5]
1 | CCOC(=O)[C@@H]1CC2(CCN(c3cc(O[C@H](c4ccc(Cl)cc4-c4ccccc4)C(F)(F)F)nc(N)n3)CC2)CN1 [RVT-1201, (S)-ethyl 8-(2-amino-6-((R)-1-(5-chloro-[1,1′-biphenyl]-2-yl)-2,2,2-trifluoroethoxy)pyrimidin-4-yl)-2,8-diazaspiro[4.5]decane-3-carboxylate] | demonstrated | about −53% | well tolerated | −45% to −56% | −27% to −96% | 500 to 600 | comparable to BID or TID regimens | ~65 | block or ameliorate PAH | block or ameliorate PAH | 
2 | CCOC(=O)[C@@H]1CC2(CCN(c3cc(O[C@H](c4ccc(Cl)cc4-c4ccccc4)C(F)(F)F)nc(N)n3)CC2)CN1 [crystalline Form 3, (S)-ethyl 8-(2-amino-6-((R)-1-(5-chloro-[1,1′-biphenyl]-2-yl)-2,2,2-trifluoroethoxy)pyrimidin-4-yl)-2,8-diazaspiro[4.5]decane-3-carboxylate] |  |  |  |  |  |  |  |  |  |  | substantially greater stability and shelf life
